Experimental data as given in publication PMC7206119, “RIP1 inhibition blocks inflammatory diseases but not tumor growth or metastases” (Cell Death and Differentiation, 2019).

What was measured:
Assay in all cases: biochemical
Design in all cases: DiscoverX kinase panel, active-site competition binding (KINOMEscan type), percent of control at one concentration
Details in all cases: competition binding, percent of control
ADCK4 = target: T1, ADCK4 (Homo sapiens, UniProt Q96D53)
T1 construct: gene COQ8B

BMPR2 = BMPR2 (Homo sapiens, UniProt Q13873)
CDK3 = CDK3 (Homo sapiens, UniProt Q00526)
CLK2 = CLK2 (Homo sapiens, UniProt P49760)
CSK = CSK (Homo sapiens, UniProt P41240)
DRAK1 = target: T2, DRAK1 (Homo sapiens, UniProt Q9UEE5)
T2 construct: gene STK17A

DYRK1A = DYRK1A (Homo sapiens, UniProt Q13627)
FLT3 = FLT3 (Homo sapiens, UniProt P36888)
HASPIN = HASPIN (Homo sapiens, UniProt Q8TF76)
[1] = target: T3, JAK1(JH2domain-pseudokinase) (Homo sapiens, UniProt P23458)
T3 construct: JH2domain-pseudokinase

MEK6 = target: T4, MEK6 (Homo sapiens, UniProt P52564)
T4 construct: gene MAP2K6

MYLK4 = MYLK4 (Homo sapiens, UniProt Q86YV6)
NEK10 = NEK10 (Homo sapiens, UniProt Q6ZWH5)
PIM1 = PIM1 (Homo sapiens, UniProt P11309)
PRKG2 = PRKG2 (Homo sapiens, UniProt Q13237)
PRKX = PRKX (Homo sapiens, UniProt P51817)
RET(M918T) = RET(M918T) (Homo sapiens, UniProt P07949, M918T)
RIOK3 = RIOK3 (Homo sapiens, UniProt O14730)
SBK1 = SBK1 (Homo sapiens, UniProt Q52WX2)
SRPK1 = SRPK1 (Homo sapiens, UniProt Q96SB4)
SYK = SYK (Homo sapiens, UniProt P43405)
TLK2 = TLK2 (Homo sapiens, UniProt Q86UE8)

Sequence of CSK (P41240 whole entry): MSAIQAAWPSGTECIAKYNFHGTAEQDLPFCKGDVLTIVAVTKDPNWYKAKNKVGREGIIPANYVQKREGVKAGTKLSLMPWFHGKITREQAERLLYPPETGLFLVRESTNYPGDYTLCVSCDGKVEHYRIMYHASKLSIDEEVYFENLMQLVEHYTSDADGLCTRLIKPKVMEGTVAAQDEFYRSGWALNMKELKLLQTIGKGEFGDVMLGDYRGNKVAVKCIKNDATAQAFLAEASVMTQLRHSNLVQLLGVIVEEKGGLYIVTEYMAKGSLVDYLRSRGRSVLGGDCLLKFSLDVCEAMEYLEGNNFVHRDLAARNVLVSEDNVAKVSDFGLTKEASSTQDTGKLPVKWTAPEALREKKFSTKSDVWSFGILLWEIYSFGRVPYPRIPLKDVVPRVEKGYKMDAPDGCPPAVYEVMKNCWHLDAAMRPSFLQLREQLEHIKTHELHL
T3 sequence (P23458 whole entry): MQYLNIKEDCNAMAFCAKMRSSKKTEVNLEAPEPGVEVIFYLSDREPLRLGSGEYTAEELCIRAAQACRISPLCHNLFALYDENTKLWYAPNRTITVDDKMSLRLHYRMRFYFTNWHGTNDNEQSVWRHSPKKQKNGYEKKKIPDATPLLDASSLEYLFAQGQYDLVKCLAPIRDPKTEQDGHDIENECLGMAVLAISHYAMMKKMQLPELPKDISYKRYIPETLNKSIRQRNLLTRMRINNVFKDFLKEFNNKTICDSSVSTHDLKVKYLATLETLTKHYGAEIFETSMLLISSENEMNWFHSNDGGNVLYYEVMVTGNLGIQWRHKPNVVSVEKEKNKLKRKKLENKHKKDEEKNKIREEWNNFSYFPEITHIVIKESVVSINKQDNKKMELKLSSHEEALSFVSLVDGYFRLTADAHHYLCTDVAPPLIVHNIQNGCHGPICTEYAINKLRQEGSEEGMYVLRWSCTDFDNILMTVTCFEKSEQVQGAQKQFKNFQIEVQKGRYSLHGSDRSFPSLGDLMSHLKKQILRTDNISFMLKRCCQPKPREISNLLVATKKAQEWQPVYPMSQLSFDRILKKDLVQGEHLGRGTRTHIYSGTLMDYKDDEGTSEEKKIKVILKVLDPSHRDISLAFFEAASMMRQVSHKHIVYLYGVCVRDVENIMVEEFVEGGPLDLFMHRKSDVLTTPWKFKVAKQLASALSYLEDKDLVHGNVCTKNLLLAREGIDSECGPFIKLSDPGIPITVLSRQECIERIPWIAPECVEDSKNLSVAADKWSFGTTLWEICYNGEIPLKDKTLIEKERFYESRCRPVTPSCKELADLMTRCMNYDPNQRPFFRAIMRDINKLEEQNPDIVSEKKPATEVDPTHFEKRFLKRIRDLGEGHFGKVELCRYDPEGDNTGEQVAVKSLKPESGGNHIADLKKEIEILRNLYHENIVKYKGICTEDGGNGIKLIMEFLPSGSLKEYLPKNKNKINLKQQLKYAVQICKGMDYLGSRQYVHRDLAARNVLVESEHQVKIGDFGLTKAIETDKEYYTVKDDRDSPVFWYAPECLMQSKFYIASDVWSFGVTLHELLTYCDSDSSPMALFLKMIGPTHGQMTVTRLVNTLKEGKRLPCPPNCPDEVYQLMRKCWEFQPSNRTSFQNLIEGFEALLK
T2 sequence (Q9UEE5 whole entry): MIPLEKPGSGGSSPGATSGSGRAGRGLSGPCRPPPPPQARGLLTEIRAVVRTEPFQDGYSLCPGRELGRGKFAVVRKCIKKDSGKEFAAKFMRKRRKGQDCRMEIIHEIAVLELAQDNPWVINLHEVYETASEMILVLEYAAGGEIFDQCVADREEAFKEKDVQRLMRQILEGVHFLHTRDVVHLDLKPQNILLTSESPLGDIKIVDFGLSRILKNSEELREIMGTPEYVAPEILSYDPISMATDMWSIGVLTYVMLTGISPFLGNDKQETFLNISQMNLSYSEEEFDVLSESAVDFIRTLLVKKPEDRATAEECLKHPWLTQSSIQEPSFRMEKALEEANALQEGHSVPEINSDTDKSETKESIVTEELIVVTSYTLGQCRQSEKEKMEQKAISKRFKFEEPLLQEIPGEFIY
Sequence of CDK3 (Q00526 whole entry): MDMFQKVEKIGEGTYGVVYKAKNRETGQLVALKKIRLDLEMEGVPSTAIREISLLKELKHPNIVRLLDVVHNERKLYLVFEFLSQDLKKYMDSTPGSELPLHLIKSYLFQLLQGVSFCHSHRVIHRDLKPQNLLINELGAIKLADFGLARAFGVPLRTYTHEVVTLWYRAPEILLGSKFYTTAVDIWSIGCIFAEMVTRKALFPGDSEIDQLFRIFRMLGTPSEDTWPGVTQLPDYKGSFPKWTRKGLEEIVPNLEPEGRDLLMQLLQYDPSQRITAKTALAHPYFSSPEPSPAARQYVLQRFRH
Sequence of MYLK4 (Q86YV6 whole entry): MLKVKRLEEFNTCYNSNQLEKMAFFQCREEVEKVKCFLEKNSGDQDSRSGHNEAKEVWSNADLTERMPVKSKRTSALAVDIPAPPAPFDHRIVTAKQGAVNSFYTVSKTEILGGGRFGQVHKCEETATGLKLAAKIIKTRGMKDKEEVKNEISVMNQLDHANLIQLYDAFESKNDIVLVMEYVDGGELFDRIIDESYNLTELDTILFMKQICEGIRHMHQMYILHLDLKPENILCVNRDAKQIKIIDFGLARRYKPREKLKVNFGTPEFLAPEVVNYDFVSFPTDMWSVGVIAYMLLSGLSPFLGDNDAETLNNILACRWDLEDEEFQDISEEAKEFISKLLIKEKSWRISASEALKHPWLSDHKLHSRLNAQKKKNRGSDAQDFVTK
Sequence of FLT3 (P36888 whole entry): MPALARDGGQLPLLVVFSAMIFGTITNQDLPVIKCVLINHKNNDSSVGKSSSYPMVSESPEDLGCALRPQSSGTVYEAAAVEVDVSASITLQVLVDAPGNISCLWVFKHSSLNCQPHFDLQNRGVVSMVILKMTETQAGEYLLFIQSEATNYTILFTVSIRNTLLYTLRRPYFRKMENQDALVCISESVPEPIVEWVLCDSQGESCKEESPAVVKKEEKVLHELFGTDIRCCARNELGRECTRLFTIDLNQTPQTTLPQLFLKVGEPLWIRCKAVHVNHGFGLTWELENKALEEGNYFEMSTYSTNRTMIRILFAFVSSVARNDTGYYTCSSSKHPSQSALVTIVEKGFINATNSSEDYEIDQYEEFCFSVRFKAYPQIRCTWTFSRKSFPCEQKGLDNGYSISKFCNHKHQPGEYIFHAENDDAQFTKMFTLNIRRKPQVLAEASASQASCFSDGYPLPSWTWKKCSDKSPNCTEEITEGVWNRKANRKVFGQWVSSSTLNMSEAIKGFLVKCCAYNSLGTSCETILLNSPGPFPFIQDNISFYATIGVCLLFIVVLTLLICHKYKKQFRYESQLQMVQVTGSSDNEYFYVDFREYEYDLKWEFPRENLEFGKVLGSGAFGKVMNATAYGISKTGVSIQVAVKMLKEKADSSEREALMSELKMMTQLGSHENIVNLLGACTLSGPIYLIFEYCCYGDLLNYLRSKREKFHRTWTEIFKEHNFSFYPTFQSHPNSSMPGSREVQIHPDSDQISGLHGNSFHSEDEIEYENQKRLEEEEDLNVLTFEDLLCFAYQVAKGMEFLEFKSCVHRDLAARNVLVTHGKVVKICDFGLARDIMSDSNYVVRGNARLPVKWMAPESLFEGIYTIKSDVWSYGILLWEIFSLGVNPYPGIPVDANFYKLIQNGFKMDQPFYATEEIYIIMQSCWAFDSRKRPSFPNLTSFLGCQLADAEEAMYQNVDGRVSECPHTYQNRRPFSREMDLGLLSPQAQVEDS
Sequence of SBK1 (Q52WX2 whole entry): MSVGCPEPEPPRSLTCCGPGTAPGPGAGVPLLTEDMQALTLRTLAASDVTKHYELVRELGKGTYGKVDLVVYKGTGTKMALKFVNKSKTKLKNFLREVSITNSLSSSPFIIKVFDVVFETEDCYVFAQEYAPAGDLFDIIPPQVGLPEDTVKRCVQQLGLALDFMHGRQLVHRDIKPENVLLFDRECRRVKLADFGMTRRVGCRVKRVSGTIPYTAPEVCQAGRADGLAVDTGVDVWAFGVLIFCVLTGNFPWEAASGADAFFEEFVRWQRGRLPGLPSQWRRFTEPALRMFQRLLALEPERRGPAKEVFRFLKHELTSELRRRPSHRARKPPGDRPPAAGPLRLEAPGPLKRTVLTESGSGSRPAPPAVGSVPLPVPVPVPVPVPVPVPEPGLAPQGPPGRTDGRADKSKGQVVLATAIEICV
Sequence of RIOK3 (O14730 whole entry): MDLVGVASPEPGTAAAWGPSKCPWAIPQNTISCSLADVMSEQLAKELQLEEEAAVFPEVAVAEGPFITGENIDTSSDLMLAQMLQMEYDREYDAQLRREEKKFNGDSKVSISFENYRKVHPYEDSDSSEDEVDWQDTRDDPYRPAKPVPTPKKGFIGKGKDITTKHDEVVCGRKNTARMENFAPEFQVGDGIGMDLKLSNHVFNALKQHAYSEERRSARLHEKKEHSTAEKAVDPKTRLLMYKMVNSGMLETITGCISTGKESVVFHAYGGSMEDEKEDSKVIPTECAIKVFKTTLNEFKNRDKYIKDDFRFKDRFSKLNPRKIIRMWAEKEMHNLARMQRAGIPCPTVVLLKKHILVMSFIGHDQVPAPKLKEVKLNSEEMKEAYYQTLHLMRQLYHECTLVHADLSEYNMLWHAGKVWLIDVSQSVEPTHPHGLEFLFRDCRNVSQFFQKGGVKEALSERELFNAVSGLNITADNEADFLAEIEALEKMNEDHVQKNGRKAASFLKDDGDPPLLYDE
Sequence of PRKX (P51817 whole entry): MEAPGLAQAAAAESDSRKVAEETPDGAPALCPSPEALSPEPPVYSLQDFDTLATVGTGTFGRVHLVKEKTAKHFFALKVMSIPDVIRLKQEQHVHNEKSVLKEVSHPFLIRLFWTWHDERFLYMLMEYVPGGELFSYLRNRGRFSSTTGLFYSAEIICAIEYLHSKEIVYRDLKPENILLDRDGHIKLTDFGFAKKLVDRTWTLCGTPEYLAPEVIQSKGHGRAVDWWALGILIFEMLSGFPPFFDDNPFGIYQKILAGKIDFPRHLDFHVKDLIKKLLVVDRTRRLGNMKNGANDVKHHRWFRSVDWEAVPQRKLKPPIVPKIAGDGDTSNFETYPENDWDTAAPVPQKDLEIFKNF

`COc1cc2c(cn1)N(C)C(=O)[C@@H](NC(=O)c1nc3n(n1)[C@H](c1ccccc1)CC3)CC2` [GNE684, (S)-N-((S)-7-methoxy-1-methyl-2-oxo-2,3,4,5-tetrahydro-1H-pyrido[3,4-b]azepin-3-yl)-5-phenyl-6,7-dihydro-5H-pyrrolo[1,2-b][1,2,4]triazole-2-carboxamide] was tested, and the remaining binding at 10 µM (ADCK4) was 100%, the remaining binding at 10 µM (BMPR2) was 100% and the remaining binding at 10 µM (CDK3) was 74%. It also gave a remaining binding at 10 µM (CLK2) of 74%, a remaining binding at 10 µM (CSK) of 100% and a remaining binding at 10 µM (DRAK1) of 92%. The remaining binding at 10 µM (DYRK1A) was 79%, the remaining binding at 10 µM (FLT3) was 87% and the remaining binding at 10 µM (HASPIN) was 100%. It also gave a remaining binding at 10 µM [1] of 48%, a remaining binding at 10 µM (MEK6) of 100% and a remaining binding at 10 µM (MYLK4) of 100%. The remaining binding at 10 µM (NEK10) was 100%, the remaining binding at 10 µM (PIM1) was 100% and the remaining binding at 10 µM (PRKG2) was 94%. The remaining binding at 10 µM (PRKX) was 99%, the remaining binding at 10 µM (RET(M918T)) was 89% and the remaining binding at 10 µM (RIOK3) was 100%. For the same molecule, the remaining binding at 10 µM (SBK1) was 100%, the remaining binding at 10 µM (SRPK1) was 93% and the remaining binding at 10 µM (SYK) was 75%. The remaining binding at 10 µM (TLK2) was 100%.
